From patent publication US12655142B2 (Merck Patent GmbH, priority 2019, dated 2026) come the findings set out here.

Series [1] has as its target T1, GIST430 cell line expressing constitutive active cKIT receptor tyrosine kinase (Δ560-576 deletion) (Homo sapiens, UniProt P10721, DEL560-576).
T1 construct: endogenous in cells; host or cells: GIST430 cells
The experiment in a line: Cellular cKIT autophosphorylation (phospho-Y307-cKIT, Luminex bead assay) in GIST430 cells. The series is classed as cell-based. Particulars: cKIT autophosphorylation, GIST430 cells, compounds 45 min; read-out: GIST 430 IC50. Here is the method: Assay Principle for Cellular Testing of cKIT Mutant Inhibitors
The GIST430 cell line expressing constitutive active cKIT receptor tyrosine kinase (Δ560-576 deletion) and the Imatinib resistant GIST430/654 cell line expressing mutated constitutively active cKIT receptor tyrosine kinase (Δ560-576 deletion and V654A point mutation) were employed for assessing cellular potency of compounds. Cellular activity of mutant cKIT was determined by the degree of cKIT autophosphorylation at tyrosine 307 using a Luminex-based bead assay. GIST430 cells were plated with 22,000 cells per well of a 96-well plate in 100 μl medium (85% IMDM/15% FCS) and GIST430/654 cells were plated with 25,000 cells per well of a 96-well plate in 100 μl medium (85% IMDM/15% FCS supplemented with 100 nM Imatinib). At the following day compounds were added in a serial dilution for 45 min. Then, cells were lysed with 90 μl lysis buffer (20 mM Hepes pH 7.5, 200 mM NaCl, 1.5 mM MgCl2×6H2O, 0.4 mM EDTA, 1% Triton-X-100, 1% Phosphatase-Inhibitor II, 20 mM β-Glycerolphosphat, 0.1% Protease-Inhibitor Cocktail III, 0.01% Benzonase) and lysates were cleared by centrifugation through a 96-well filter plate (0.65 μm). Samples were incubated with Luminex-beads which were coupled with an anti-total cKIT antibody overnight at 4° C. under gentle agitation. For detection of phospho-Y307-cKIT a phosphospecific antibody and a species-specific PE-labeled secondary antibody were added. The amount of phospho-Y307-cKIT was determined in a Luminex 200 instrument measuring 100 events per well within 60 seconds.
Counts from samples treated with compounds were calculated as percent of control from solvent treated (0.3% DMSO) samples. Dose-response curves were fitted and IC50 values were determined using Genedata Screener software.

Series [2] in a line: Determination of Efflux-Ratio (ER) in Caco-2 cells. Particulars: human, Caco-2, pH 7.4.
Series [3] deals with T2, GIST430/654 cell line expressing mutated constitutively active cKIT receptor tyrosine kinase (Δ560-576 deletion and V654A point mutation) (Homo sapiens, UniProt P10721, DEL560-576/V654A).
T2 construct: endogenous in cells; host or cells: GIST430/654 cells
The experiment in a line: Cellular cKIT autophosphorylation (phospho-Y307-cKIT, Luminex bead assay) in GIST430/654 cells. In kind it is cell-based. To be noted: compounds 45 min, read-out: GIST 430/654 IC50. The gist of the method: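 Phospho-Y307 cKIT in lysates was measured on a Luminex bead assay, with total-cKIT capture overnight at 4 °C and phosphospecific plus PE secondary detection. Cells had 45 min exposure to a compound dilution series the day after plating: GIST430 (Δ560-576) or GIST430/654 (Δ560-576/V654A, grown with 100 nM imatinib). IC50 values are relative to 0.3% DMSO-treated cells.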

Series [4] has as its target T3, c-Kit(V654A) (Homo sapiens, UniProt P10721, V654A).
T3 construct: recombinant human c-Kit, amino acids 544-end containing the V654A mutation; GST (N)
Kind of series: c-Kit(V654A) assay (33P-ATP filter binding kinase assay). The series is classed as biochemical. Particulars: recombinant human c-Kit aa 544-end V654A, ATP 200 μM. The gist of the method:
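Radiometric filter-binding read-out: substrate 33P incorporation counted by scintillation after P30 filtermat washes in 75 mM phosphoric acid and methanol. Enzyme: N-GST recombinant human c-Kit aa 544-end carrying V654A.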

T1 sequence (P10721 with tags, fused parts or gaps DEL560-576): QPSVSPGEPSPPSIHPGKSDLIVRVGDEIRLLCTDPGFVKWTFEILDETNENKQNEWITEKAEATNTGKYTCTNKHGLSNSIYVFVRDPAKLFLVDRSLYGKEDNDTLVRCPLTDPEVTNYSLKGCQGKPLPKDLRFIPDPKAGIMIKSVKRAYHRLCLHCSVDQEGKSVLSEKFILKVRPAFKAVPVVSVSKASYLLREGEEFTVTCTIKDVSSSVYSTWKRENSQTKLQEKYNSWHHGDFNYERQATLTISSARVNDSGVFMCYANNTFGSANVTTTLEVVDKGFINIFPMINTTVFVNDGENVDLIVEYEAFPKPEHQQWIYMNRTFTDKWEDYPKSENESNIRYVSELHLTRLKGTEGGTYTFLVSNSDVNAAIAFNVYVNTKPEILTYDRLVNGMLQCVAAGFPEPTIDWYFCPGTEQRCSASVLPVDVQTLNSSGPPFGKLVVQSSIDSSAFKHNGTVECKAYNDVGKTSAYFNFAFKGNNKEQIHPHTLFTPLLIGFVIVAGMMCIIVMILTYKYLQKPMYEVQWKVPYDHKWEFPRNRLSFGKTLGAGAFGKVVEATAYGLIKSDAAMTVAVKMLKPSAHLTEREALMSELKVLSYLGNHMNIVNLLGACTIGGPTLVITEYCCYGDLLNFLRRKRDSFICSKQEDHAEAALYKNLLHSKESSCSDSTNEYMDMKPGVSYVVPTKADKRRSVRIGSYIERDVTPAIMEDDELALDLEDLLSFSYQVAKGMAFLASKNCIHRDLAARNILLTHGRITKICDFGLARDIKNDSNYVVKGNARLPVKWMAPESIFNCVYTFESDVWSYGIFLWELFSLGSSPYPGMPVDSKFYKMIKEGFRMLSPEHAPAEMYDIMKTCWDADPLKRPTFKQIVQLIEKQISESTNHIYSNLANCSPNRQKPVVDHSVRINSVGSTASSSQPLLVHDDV
T3 sequence (P10721 544-976 V654A): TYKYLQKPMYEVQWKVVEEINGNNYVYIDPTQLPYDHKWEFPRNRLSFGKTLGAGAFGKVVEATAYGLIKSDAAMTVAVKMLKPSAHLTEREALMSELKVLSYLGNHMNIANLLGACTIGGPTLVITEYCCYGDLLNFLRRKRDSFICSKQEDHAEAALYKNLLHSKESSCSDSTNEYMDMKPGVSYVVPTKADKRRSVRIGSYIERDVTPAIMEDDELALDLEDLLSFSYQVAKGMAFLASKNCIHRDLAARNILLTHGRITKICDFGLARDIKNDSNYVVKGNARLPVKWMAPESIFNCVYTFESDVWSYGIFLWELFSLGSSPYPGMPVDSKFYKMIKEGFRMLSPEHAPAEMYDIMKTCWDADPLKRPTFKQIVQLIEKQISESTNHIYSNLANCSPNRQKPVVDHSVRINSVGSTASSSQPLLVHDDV
T2 sequence (P10721 with tags, fused parts or gaps DEL560-576/V654A): as the sequence (P10721 with tags, fused parts or gaps DEL560-576) above, with V612A counted along it

One may read the efflux ratio as the permeability from basolateral to apical divided by that in the opposite direction, in the common usage. For the compound `COCCOc1ccn2c(-c3cc(NCc4ccc(-c5ccccc5)cc4)ncn3)cnc2c1` [A2, N-({[1,1′-biphenyl]-4-yl}methyl)-6-[7-(2-methoxyethoxy)imidazo[1,2-a]pyridin-3-yl]pyrimidin-4-amine], the values for the IC50 in series [1], in series [3] and in series [4] were 7.7 nM, 160 nM and 4.6 nM, respectively. Further, in series [2], the efflux ratio at 2 h, 1 μM was < 15.
The like results for `Cn1ncc(-c2ccc(CNc3cc(-c4cnc5cc(OCC(C)(C)O)ccn45)ncn3)cc2)n1` [A85, 2-methyl-1-(3-{6-[4-(2-methyl-2H-[1,2,3]triazol-4-yl)-benzylamino]-pyrimidin-4-yl}-imidazo[1,2-a]pyridin-7-yloxy)-propan-2-ol] were, in that order, 3.3 nM, 65 nM, 6.5 nM and < 15.
The like results for `c1ccn2c(-c3cc(NCc4ccc(N5CCCC5)nc4)ncn3)cnc2c1` [A147, (6-imidazo[1,2-a]pyridin-3-yl-pyrimidin-4-yl)-(6-pyrrolidin-1-yl-pyridin-3-ylmethyl)-amine] were, in that order, 7.3 nM, 430 nM, 5.4 nM and < 15.
For `Cn1cc(-c2ccc(CNc3cc(-c4cnc5cc(OCCN6CCn7nncc7C6)ccn45)ncn3)cc2)cn1` [A217, (6-{7-[2-(6,7-dihydro-4H-[1,2,3]triazolo[1,5-a]pyrazin-5-yl)-ethoxy]-imidazo[1,2-a]pyridin-3-yl}-pyrimidin-4-yl)-[4-(1-methyl-1H-pyrazol-4-yl)-benzyl]-amine], the IC50 stood at 4.4 nM in series [1], 76 nM in series [3] and 7.8 nM in series [4]. In addition, the efflux ratio at 2 h, 1 μM in series [2] was in the range of 15 to 50.
For `Cn1cc(-c2ccc(CNc3cc(-c4cnc5cc(-n6cncn6)ccn45)ncn3)cc2)cn1` [A266, N-{[4-(1-methyl-1H-pyrazol-4-yl)phenyl]methyl}-6-[7-(1H-1,2,4-triazol-1-yl)imidazo[1,2-a]pyridin-3-yl]pyrimidin-4-amine], in that order: 5.1 nM, 130 nM, 7.9 nM and < 15.
For `COc1ccn2c(-c3cc(NCc4ccc(-c5cnn(C)c5)cc4)ncn3)cnc2c1` [A1, 6-{7-methoxyimidazo[1,2-a]pyridin-3-yl}-N-{[4-(1-methyl-1H-pyrazol-4-yl)phenyl]methyl}pyrimidin-4-amine], the IC50 turned out to be 3.2 nM in series [1], 55 nM in series [3] and 8.6 nM in series [4]. Moreover, the efflux ratio at 2 h, 1 μM in series [2] is < 15.
As to `Cc1nc(-c2ccc(CNc3cc(-c4cnc5cc(OCCN6CCn7nncc7C6)ccn45)ncn3)cc2)co1` [A264, N-{[4-(2-methyl-1,3-oxazol-4-yl)phenyl]methyl}-6-[7-(2-{4H,5H,6H,7H-[1,2,3]triazolo[1,5-a]pyrazin-5-yl}ethoxy)imidazo[1,2-a]pyridin-3-yl]pyrimidin-4-amine], the IC50 in series [1] is 1.1 nM; in series [3], 36 nM; in series [4], 1.6 nM. Besides, in series [2], the efflux ratio at 2 h, 1 μM lay within 15 to 50.
Take `Cn1cc(-c2ccc(CNc3cc(-c4cnc5cc(N6CCCC6)ccn45)ncn3)cc2)cn1` [A177, [4-(1-methyl-1H-pyrazol-4-yl)-benzyl]-[6-(7-pyrrolidin-1-yl-imidazo[1,2-a]pyridin-3-yl)-pyrimidin-4-yl]-amine]: the IC50 in series [1] turned out to be 15 nM; in series [3], 34 nM; in series [4], 17 nM. In series [2], the efflux ratio at 2 h, 1 μM was < 15.
As for `Cn1cc(-c2ccc(CNc3cc(-c4cnc5cc(N6CCC(CCO)C6)ccn45)ncn3)cc2)cn1` (stereo not shown) [A178, 2-[1-(3-{6-[4-(1-methyl-1H-pyrazol-4-yl)-benzylamino]-pyrimidin-4-yl}-imidazo[1,2-a]pyridin-7-yl)-pyrrolidin-3-yl]-ethanol], the IC50 worked out at 3.8 nM in series [1], 47 nM in series [3] and 19 nM in series [4]. Further, the efflux ratio at 2 h, 1 μM in series [2] is < 15.
The like results for `Cn1cc(-c2ccc(CNc3cc(-c4cnc5cc(OCCCNC6COC6)ccn45)ncn3)cc2)cn1` [A258, N-{[4-(1-methyl-1H-pyrazol-4-yl)phenyl]methyl}-6-(7-{3-[(oxetan-3-yl)amino]propoxy}imidazo[1,2-a]pyridin-3-yl)pyrimidin-4-amine] were, in that order, 2.7 nM, 56 nM, 5.1 nM and < 15.
On to `Cn1ncc(-c2ccc(CNc3cc(-c4cnc5cc(OCCCNC6COC6)ccn45)ncn3)cc2)n1` [A259, N-{[4-(2-methyl-2H-1,2,3-triazol-4-yl)phenyl]methyl}-6-(7-{3-[(oxetan-3-yl)amino]propoxy}imidazo[1,2-a]pyridin-3-yl)pyrimidin-4-amine], for which the values for the IC50 in series [1], in series [3] and in series [4] were 1.8 nM, 33 nM and 3.8 nM, respectively. The efflux ratio at 2 h, 1 μM in series [2] was < 15.
For the compound `Cn1cc(-c2ccc(CNc3cc(-c4cnc5cc(OCCN6CCOCC6)ccn45)ncn3)cc2)cn1` [A56, [4-(1-methyl-1H-pyrazol-4-yl)-benzyl]-{6-[7-(2-morpholin-4-yl-ethoxy)-imidazo[1,2-a]pyridin-3-yl]-pyrimidin-4-yl}-amine], the IC50 in series [1] is 3.9 nM; in series [3], 50 nM; in series [4] it was 7.3 nM. Further, in series [2], the efflux ratio at 2 h, 1 μM was < 15.
In the case of `FC(F)(F)Oc1ccc(CNc2cc(-c3cnc4cc(OCCN5CCn6nncc6C5)ccn34)ncn2)cc1` [A265, 6-[7-(2-{4H,5H,6H,7H-[1,2,3]triazolo[1,5-a]pyrazin-5-yl}ethoxy)imidazo[1,2-a]pyridin-3-yl]-N-{[4-(trifluoromethoxy)phenyl]methyl}pyrimidin-4-amine], the IC50 amounted to 3.3 nM in series [1], 78 nM in series [3] and 6.8 nM in series [4]. For the same compound, the efflux ratio at 2 h, 1 μM in series [2] is < 15.
For `Cc1cn(-c2ccn3c(-c4cc(NCc5ccc(-c6cnn(C)c6)cc5)ncn4)cnc3c2)cn1` [A267, 6-[7-(4-methyl-1H-imidazol-1-yl)imidazo[1,2-a]pyridin-3-yl]-N-{[4-(1-methyl-1H-pyrazol-4-yl)phenyl]methyl}pyrimidin-4-amine], in that order: 1.7 nM, 63 nM, 4.4 nM and < 15.
For `Cn1cc(-c2ccc(CNc3cc(-c4cnc5cc(OCC6CCN(C7COC7)CC6)ccn45)ncn3)cc2)cn1` [A78, [4-(1-methyl-1H-pyrazol-4-yl)-benzyl]-{6-[7-(1-oxetan-3-yl-piperidin-4-ylmethoxy)-imidazo[1,2-a]pyridin-3-yl]-pyrimidin-4-yl}-amine], in that order: 3.6 nM, 79 nM, 9.1 nM and < 15.
Turning to `CN1CCC(COc2ccn3c(-c4cc(NCc5ccc(-c6cnn(C)n6)cc5)ncn4)cnc3c2)CC1` [A79, {6-[7-(1-methyl-piperidin-4-ylmethoxy)-imidazo[1,2-a]pyridin-3-yl]-pyrimidin-4-yl}-[4-(2-methyl-2H-[1,2,3]triazol-4-yl)-benzyl]-amine], the IC50 was 4.1 nM in series [1], 28 nM in series [3] and 1.5 nM in series [4]. In series [2], the efflux ratio at 2 h, 1 μM was < 15.
